According to patent EP2902035B1, “Cell-permeable peptide inhibitors of the JNK signal transduction pathway for use in the treatment of inflammatory eye diseases” (Xigen Inflammation Ltd., priority 2010, dated 2012):

Experiments:
Format in all cases: in vivo, Lewis rats
ED1 positive cells = assay: Quantification of infiltrating ED1 positive cells on histological sections in EIU; conditions: 24 hours after LPS challenge, mean ± SEM
Method: (§1) For immunohistochemistry, eyeballs were collected and fixed for 1h at room temperature in phosphate buffered saline (PBS) containing 4% paraformaldehyde before being rinsed overnight in PBS. The next day, samples were embedded and frozen in optimal cutting-temperature (OCT) compound (Tissue-Tek®, Sakura Finetek, Zoeterwoude, Netherland) and stored at -80°C. Frozen antero-posterior sections of eyes (10 µm thick) were performed at the optic nerve level using a cryostat (Leica CM 3050S, Rueil-Malmaison, France) and mounted on super-frost slides for immunohistochemical analysis.
(§2) A second set of experiment was designed to evaluate the anti-inflammatory effect of the JNK-inhibitor (poly-)peptide of SEQ ID NO: 11 at the cellular and tissue level as well as the biodistribution of this molecule 24 hours after administration. Rats were randomized into 11 experimental groups. 6 groups of rats with uveitis: untreated uveitic rats, rats injected intravenously with NaCl or the JNK-inhibitor (poly-)peptide of SEQ ID NO: 11 and rats injected intravitreously with the vehicle, the JNK-inhibitor (poly-)peptide of SEQ ID NO: 11 or dexamethasone. The 5 additional groups without uveitis were: untreated healthy rats, rats treated by NaCl IV or the JNK-inhibitor (poly-)peptide of SEQ ID NO: 11 IV and rats injected IVT with NaCl or the JNK-inhibitor (poly-)peptide of SEQ ID NO: 11. Three eyes from separate rats were collected per group and used for immunohistochemistry.
To characterize the cellular infiltrate, sections were double-stained with ED1 and iNOS. […] After staining nuclei with DAPI (Sigma-Aldrich, Saint-Quentin Fallavier, France), sections were mounted in PBS/Glycerol (1/1) and observed by fluorescence photomicroscopy (FXA, Microphot, Nikon, Melville, USA). […] ED1 positive cells and polymorphonuclear cells, identified by the shape of their nuclei stained with DAPI, were quantified on histological sections. […] Results were expressed as mean ± standard error of the mean (SEM).

[1] = Ocular biodistribution by immunohistochemistry against SEQ ID NO: 11
Method: as §1, §2
Immunostaining of the JNK-inhibitor (poly-)peptide of SEQ ID NO: 11 was performed on healthy and uveitic eyes to study its ocular biodistribution after systemic or local administration. Briefly, sections were permeabilized as described above before being sequentially incubated with an anti- SEQ ID NO: 11 purified rabbit IgG and a secondary Alexa 594 (red)-conjugated goat anti-rabbit IgG (Invitrogen, Cergy Pontoise, France) diluted 1:100 and 1:250 in PBS respectively. Immunostaining of untreated healthy and uveitic eyes were used as negative controls. Nuclei were stained with DAPI before mounting and observation.

[2] = tested on: intraocular LPS-induced Chemokine/Cytokine profiles; assay: Chemokine/Cytokine Multiplex Assay on ocular fluids in EIU
Method: Aqueous humor and vitreous were collected and pooled from each enucleated eye. Ocular fluids were immediately centrifuged and the cell-free fractions were collected and frozen at -20°C before analysis by Multiplex assay. Blood samples were first clotted at room temperature for 2 hours and then at 4°C overnight. Serum was collected, centrifuged and the clear supernatant was collected and frozen at -20°C before Multiplex analysis.
In a first set of experiment, 70 rats were randomized into 14 experimental groups with 5 rats per group. Uveitis was induced in each group and rats were killed 6 hours (4 groups), 24 hours (6 groups) and 48 hours (4 groups) after LPS challenge. For each time point tested (i.e. 6h, 24h and 48h), rats treated by intravenous or intravitreous injections of vehicle (NaCl 0.9%) or the JNK-inhibitor (poly-)peptide of SEQ ID NO: 11 were compared to untreated control uveitic rats. Two additional groups, treated by intravenous injection of vehicle and intravitreal injection of dexamethasone were used at 24 hours. Clinical ocular inflammation was recorded only at 24 hours (see Scoring of Endotoxin-Induced Uveitis (EIU) section). At each time point, intraocular fluids from each eye (n=10 per group) and serum from each animal (n=5 per group) were used for Chemokine/Cytokine Multiplex Assay.
Intraocular fluids (diluted to obtain a final volume of 25 µL) and sera (25 µL of 1:5 dilution) were subjected to multiplex bead analysis. This method uses microspheres as the solid support for immunoassays 12 and allows the titration of a greater number of cytokines with increased sensitivity than occurs with ELISA.13 For each sample, seventeen analytes were quantified simultaneously using the rat Cytokine/Chemokine-17plex kit (Milliplex Map Kit, Millipore, Saint-Quentin-en-Yvelines, France) according to the manufacturer's instructions: Chemokines MCP-1/CCL2, MIP-1α/CCL3, RANTES/CCL5, IP-10/CXCL10 (IFN-inducible protein-10) and GRO/KC; proinflammatory mediators IL-1, IL-18 and TNF-; Th1/Th2/Th17 cytokines IL-2 and IFN- / IL-4, IL-5, IL-6, IL-10 and IL-13 / IL-17. The assay was performed in a 96-well filter plate and standard curves for each cytokine were generated with a Rat Cytokine Standard provided in the kit. All incubation steps were performed under medium orbital agitation and in the dark to protect the beads from light. Data acquisition and analysis were performed with the manager software version 4.1 (Bioplex; Bio-Rad) with four or five logistic parameters for standard curves. Detection thresholds for all the analytes were estimated around 1 to 10 pg/mL.

[3] = ocular fluids, IV at the time of LPS challenge, at 6 and 24 hours
[4] = ocular fluids, IV, at different time points
[5] = ocular fluids, IVT, at 24 hours
[6] = treated versus untreated eyes, any of the tested time points

**Q.** With `CC(C)C[C@@H](NC(=O)[C@@H](Cc1ccccc1)NC(=O)[C@H]1CCCN1C(=O)[C@@H](CCC(N)=O)NC(=O)[C@H](NC(=O)[C@H]1CCCN1C(=O)[C@@H](CCCNC(=N)N)NC(=O)[C@@H](CO)NC(=O)[C@@H](CCC(N)=O)NC(=O)[C@H](N)CC(=O)O)C(C)C)C(=O)N[C@H](CC(N)=O)C(=O)N[C@H](CC(C)C)C(=O)N[C@@H](C(=O)N[C@@H](C(=O)N1CCC[C@@H]1C(=O)N[C@H](CCCNC(=N)N)C(=O)N[C@H](CCCCN)C(=O)N1CCC[C@@H]1C(=O)N[C@H](CCCNC(=N)N)C(=O)N1CCC[C@@H]1C(=O)N1CCC[C@@H]1C(=O)N[C@H](CCCNC(=N)N)C(=O)N[C@H](CCCNC(=N)N)C(=O)N[C@H](CCCNC(=N)N)C(=O)N[C@H](CCC(N)=O)C(=O)N[C@H](CCCNC(=N)N)C(=O)N[C@H](CCCNC(=N)N)C(=O)N[C@H](CCCCN)C(=O)N[C@H](CCCCN)C(=O)N[C@H](CCCNC(=N)N)C(=O)NCC(=O)O)[C@H](C)O)[C@H](C)O` [SEQ ID NO: 11] as the molecule, how does the “number of ED1 positive cells” value (ED1 positive cells; IV injection (20 µg/kg)) read?
**A.** Its value is 137 ± 7.

**Q.** What about the “number of ED1 positive infiltrating cells” value (ED1 positive cells; IVT injection (SEQ ID NO: 11: 0.2 µg/injection)) of the same molecule?
**A.** The value was 93 ± 8.

**Q.** What about the “detection of the peptide in ocular tissues” value ([1]; EIU eyes, 24 hours after IV injection) of the same molecule?
**A.** The value was “not detected”.

**Q.** What about the “detection of the peptide in infiltrating inflammatory cells (iris, aqueous humor)” value ([1]; EIU eyes, 24 hours after IV injection, occasional cells) of the same molecule?
**A.** The value was “immunopositive”.

**Q.** What about the “subcellular localisation of the peptide” value ([1]; all cell types, normal eyes after IVT administration) of the same molecule?
**A.** The value was “accumulated within the cytoplasm”.

**Q.** And the “immunoreactivity of the peptide in ocular tissues” value ([1]; normal eyes, 24 hours after systemic (IV) injection, 20 µg/kg)?
**A.** Its value is “no signal was observed”.

**Q.** And the “distribution of the peptide in ocular tissues” value ([1]; normal rats, 24 hours after IVT administration, 0.2 µg/injection)?
**A.** Its value is “distributed in almost all ocular tissues”.

**Q.** What about the “distribution of the peptide in ocular tissues and resident cells” value ([1]; uveitic eyes, 24 hours after IVT injection) of the same molecule?
**A.** The value was “mostly found in ocular tissues like in healthy eyes and in resident cells”.

**Q.** And the MCP-1 [2, 3]?
**A.** The MCP-1 was “significant reduction”.

**Q.** What about the MIP-1α [2, 3] of the same molecule?
**A.** Its MIP-1α is “significant reduction”.

**Q.** And the RANTES [2, 3]?
**A.** Its RANTES is “significant reduction”.

**Q.** And the GRO/KC ([2]; ocular fluids, IV, at 6 hours)?
**A.** The GRO/KC was “significantly reduced”.

**Q.** What about the IL-10 ([2]; ocular fluids, IV, at 6 hours, not significantly) of the same molecule?
**A.** The IL-10 was “tended to increase”.

**Q.** And the IL-6 [2, 4]?
**A.** The IL-6 was “significantly reduced”.

**Q.** What about the INF-γ [2, 4] of the same molecule?
**A.** Its INF-γ is “significantly reduced”.

**Q.** What about the TNF-α [2, 4] of the same molecule?
**A.** The TNF-α was “significantly reduced”.

**Q.** What about the IL-2 ([2]; ocular fluids, IVT, at 6 hours) of the same molecule?
**A.** The IL-2 was “trend to a decrease”.

**Q.** What about the IL-6 ([2]; ocular fluids, IVT, at 6 hours) of the same molecule?
**A.** The IL-6 was “trend to a decrease”.

**Q.** And the MCP-1 ([2]; ocular fluids, IVT, at 6 hours)?
**A.** Its MCP-1 is “trend to a decrease”.

**Q.** What about the TNF-α ([2]; ocular fluids, IVT, at 6 hours) of the same molecule?
**A.** The TNF-α was “trend to a decrease”.

**Q.** And the IL-2 [2, 5]?
**A.** Its IL-2 is “marked decrease”.

**Q.** What about the IL-13 [2, 5] of the same molecule?
**A.** The IL-13 was “increase”.

**Q.** What about the chemokine/ cytokine profiles ([2]; ocular fluids, injected into the vitreous at the time of LPS challenge, versus vehicle) of the same molecule?
**A.** Its chemokine/ cytokine profiles is “not strikingly different”.

**Q.** What about the IL-1β [2, 6] of the same molecule?
**A.** Its IL-1β is “did not differ”.

**Q.** And the IL-4 [2, 6]?
**A.** The IL-4 was “did not differ”.

**Q.** What about the IL-18 [2, 6] of the same molecule?
**A.** Its IL-18 is “did not differ”.
